The values that follow come from patent US7745475B2, “Heteroaryl benzamide derivatives as GLK activators” (AstraZeneca AB, priority 2004, dated 2010).

One series is described as follows: Oral exposure. It counts as in vivo. The following applies: compared with Example II107 in WO 03/015774.
The next series relates to Zucker obese fa/fa rats. Kind of series: Oral Glucose Tolerance Test (OGTT). It counts as in vivo, rat. On the procedure: (2) Oral Glucose Tolerance Test (OGTT)
Oral glucose tolerance tests were done on conscious Zucker obese fa/fa rats (age 12-13 weeks or older) fed a high fat diet (45% kcal fat) for at least two weeks prior to experimentation. The animals were fasted for 2 hours before use for experiments. A test compound or a vehicle was given orally 120 minutes before oral administration of a glucose solution at a dose of 2 g/kg body weight. Blood glucose levels were measured using a Accucheck glucometer from tail bled samples taken at different time points before and after administration of glucose (time course of […]). A time curve of the blood glucose levels was generated and the area-under-the-curve (AUC) for 120 minutes was calculated (the time of glucose administration being time zero). Percent reduction in glucose excursion was determined using the AUC in the vehicle-control group as zero percent reduction.

Series [1] addresses T1, recombinant human pancreatic GLK (Homo sapiens, UniProt P35557).
T1 sequence (P35557 1-465): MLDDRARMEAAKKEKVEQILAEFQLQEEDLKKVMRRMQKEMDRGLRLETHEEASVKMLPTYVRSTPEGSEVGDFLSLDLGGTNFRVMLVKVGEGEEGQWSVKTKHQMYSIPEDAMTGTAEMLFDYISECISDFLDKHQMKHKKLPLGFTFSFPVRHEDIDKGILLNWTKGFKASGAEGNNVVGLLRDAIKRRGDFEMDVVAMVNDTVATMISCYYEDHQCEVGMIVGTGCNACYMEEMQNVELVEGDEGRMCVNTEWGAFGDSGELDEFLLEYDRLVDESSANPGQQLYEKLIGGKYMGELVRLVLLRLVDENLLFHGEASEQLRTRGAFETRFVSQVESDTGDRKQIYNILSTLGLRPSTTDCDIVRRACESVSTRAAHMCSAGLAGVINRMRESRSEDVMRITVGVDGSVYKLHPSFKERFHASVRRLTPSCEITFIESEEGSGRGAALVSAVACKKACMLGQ
Description: biochemical.

The target in series [2] is T1, recombinant human pancreatic GLK. Kind of series: Enzymatic activity of recombinant human pancreatic GLK (G-6-P dehydrogenase coupled, OD 340 nm). As to conditions: comparison in words.

Molecules are shown by their SMILES.

On to `Cc1nsc(NC(=O)c2cc(Oc3ccc(S(C)(=O)=O)cc3)cc(O[C@@H](C)CO)c2)n1` [Example 3a, 3-[(1S)-2-hydroxy-1-methylethoxy]-5-[4-(methylsulfonyl)phenoxy]-N-(3-methyl-1,2,4-thiadiazol-5-yl)benzamide], for which the oral exposure entry in the series “Oral exposure” is on record as “superior oral exposure”. The “OGTT activity (percent reduction in glucose excursion, AUC vs vehicle)” value with Zucker obese fa/fa rats (3 mg/kg, given orally) was 17%. Further, in series [1], the EC50 (usually the concentration that produces a half-maximal response) amounted to 50 nM. In addition, the “EC50 values, Example 3a compared with Example II107 in WO 03/015774” value in series [2] is on record as “broadly similar”.

In the case of `C[C@@H](CO)Oc1cc(Oc2ccc(C(=O)N3CCC3)cc2F)cc(C(=O)Nc2ccn(C)n2)c1` [Example 4, 3-[4-(Azetidin-1-ylcarbonyl)-2-fluorophenoxy]-5-[(1S)-2-hydroxy-1-methylethoxy]-N-(1-methyl-1H-pyrazol-3-yl)benzamide], the melting point (usually the temperature, or range, at which the solid turns liquid) worked out at 142 °C. Same read-out and setting: the value for `CCn1ccc(NC(=O)c2cc(Oc3ccc(C(=O)N4CCC4)cc3F)cc(O[C@@H](C)CO)c2)n1` [Example 9, 3-{[4-(Azetidin-1-ylcarbonyl)-2-fluorophenyl]oxy}-N-(1-ethyl-1H-pyrazol-3-yl)-5-{[(1S)-2-hydroxy-1-methylethyl]oxy}benzamide] was 124 °C; that for `Cc1nsc(NC(=O)c2cc(Oc3ccc(C(=O)N4CCC4)cc3F)cc(O[C@@H](C)CO)c2)n1` [Example 27, 3-[4-(Azetidin-1-ylcarbonyl)-2-fluorophenoxy]-5-[(1S)-2-hydroxy-1-methylethoxy]-N-(3-methyl-1,2,4-thiadiazol-5-yl)benzamide] was 173 to 175 °C. As to `Cc1cnc(NC(=O)c2cc(OCCc3ccsc3)cc(OC(C)C)c2)s1` [Example II107, reference compound], the OGTT activity result with Zucker obese fa/fa rats (10 mg/kg) is reported as “not active”. On to `C[C@@H](CO)Oc1cc(Oc2ccc(S(C)(=O)=O)cc2)cc(C(=O)Nc2ccn(C)n2)c1` [compound 3, 3-[(1S)-2-Hydroxy-1-methylethoxy]-N-(1-methyl-1H-pyrazol-3-yl)-5-[4-(methylsulfonyl)phenoxy]benzamide], for which the melting point is 126 to 132 °C.
